Test results as given in article PMC9300923 (Frontiers in Pharmacology, 2022).

B1: Streptolysin O (natural protein, UniProt P0C0I3 78-571, looked up)
chain: LAPKEMPLESAEKEEKKSEDKKKSEEDHTEEINDKIYSLNYNELEVLAKNGETIENFVPKEGVKKADKFIVIERKKKNINTTPVDISIIDSVTDRTYPAALQLANKGFTENKPDAVVTKRNPQKIHIDLPGMGDKATVEVNDPTYANVSTAIDNLVNQWHDNYSGGNTLPARTQYTESMVYSKSQIEAALNVNSKILDGTLGIDFKSISKGEKKVMIAAYKQIFYTVSANLPNNPADVFDKSVTFKELQRKGVSNEAPPLFVSNVAYGRTVFVKLETSSKSNDVEAAFSAALKGTDVKTNGKYSDILENSSFTAVVLGGDAAEHNKVVTKDFDVIRNVIKDNATFSRKNPAYPISYTSVFLKNNKIAGVNNRTEYVETTSTEYTSGKINLSHQGAYVAQYEILWDEINYDDKGKEVITKRRWDNNWYSKTSPFSTVIPLGANSRNIRIMARECTGLAWEWWRKVIDERDVKLSKEINVNISGSTLSPYGSITYK
notes: Streptolysin O of Group A Streptococcus (Streptococcus pyogenes), amplified from DNA of GAS strain M1; After the BamHI site the forward primer encodes LAPKEMP; The reverse primer runs to the natural stop codon (...YGSITYK-stop); Surmise: cloning into the BamHI/SacI sites of pET28a with the gene's own stop codon would give an N-terminal His6-thrombin site-T7 tag leader; also called SLO; SLO protein

How the values were obtained:
SLY (Suilysin) = SLY (Suilysin) (Streptococcus suis, UniProt Q55996); experiment: biochemical
[1] = molecular target: the molecule itself; experiment: SDS-PAGE without beta-mercaptoethanol + Western blot of oligomers; purified SLO incubated with or without luteolin at different concentrations, 37°C for 30 min; then 40°C for 10 min in 1x SDS-PAGE loading buffer without β-ME; blot with rabbit polyclonal anti-Streptolysin O; oligomer/monomer ratio by densitometry

Sequence of SLY (Suilysin) (Q55996 28-497 limits assumed): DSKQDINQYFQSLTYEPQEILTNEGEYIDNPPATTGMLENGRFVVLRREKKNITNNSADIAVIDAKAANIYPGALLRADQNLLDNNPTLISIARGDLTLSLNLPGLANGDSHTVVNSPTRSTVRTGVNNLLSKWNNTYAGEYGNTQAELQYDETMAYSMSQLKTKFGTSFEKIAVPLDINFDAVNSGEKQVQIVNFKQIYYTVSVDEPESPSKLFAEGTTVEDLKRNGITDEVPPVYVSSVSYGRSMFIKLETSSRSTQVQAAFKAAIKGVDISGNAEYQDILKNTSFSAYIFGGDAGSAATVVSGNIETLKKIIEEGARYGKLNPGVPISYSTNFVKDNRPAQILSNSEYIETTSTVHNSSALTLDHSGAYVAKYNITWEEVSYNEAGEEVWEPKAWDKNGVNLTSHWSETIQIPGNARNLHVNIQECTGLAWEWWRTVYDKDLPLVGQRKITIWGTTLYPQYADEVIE

| Molecule | Kd (SLY (Suilysin)) [nM] | binding result [1] |
| --- | --- | --- |
| O=c1cc(-c2ccc(O)c(O)c2)oc2cc(O)cc(O)c12 [Luteolin] | 554 | – |
| B1 | – | binds |
